Structures can show the parent of a compound that is named as a salt. Where two headings read alike, the source gives them in different places.

The text below walks through data of patent US9149468B2, “Multicomponent crystals made ([2-amino-6-(4-fluoro-benzylamino)-pyridin-3-yl]-carbamic acid ethyl ester and 2-[2-[(2,6-dichlorphenyl)-amino]-phenyl]-acetic acid” (TEVA GmbH, priority 2010, dated 2015).

For experiment [1] the following is noted: mice, 15 mg per kg flupirtine maleate combined with various dosages of NSAIDS; cited from earlier work.
For experiment [2] the following is noted: rat, 35 mg per kg flupirtine maleate combined with various dosages of NSAIDS; cited from earlier work.
A short description of experiment [3]: pain and inflammation model (methods of DE 36 65 538). The class given is in vivo. As to conditions: animal model. An excerpt:
The methods disclosed therein are herewith incorporated as a reference, […]

Consider `CCOC(=O)Nc1ccc(NCc2ccc(F)cc2)nc1N` [flupirtine maleate], for which the “effect on antinociceptive activity of paracetamol, acetyl salicylic acid, and diclofenac” value in experiment [1] and in experiment [2] was “enhances” each time.
Consider `CCOC(=O)Nc1ccc(NCc2ccc(F)cc2)nc1N.O=C(O)Cc1ccccc1Nc1c(Cl)cccc1Cl` [multicomponent crystal according to the invention of ([2-amino-6-(4-fluoro-benzylamino)-pyridin-3-yl]carbamic acid ethyl ester and 2-[2-[(2,6-dichlorophenyl)-amino]-phenyl]acetic acid], for which, in experiment [3], the “effects in pain and inflammation model compared with the test results of DE 36 65 538” value is “qualitatively comparable”.
